According to patent publication US20250312352A1, “GLP-1R MODULATING COMPOUNDS” (Gilead Sciences, Inc., priority 2021, published 2025):

Assays:
[1] = Pharmacokinetic (PK) studies, monkey oral PK; assay type: in vivo, Cynomolgus monkeys; conditions: for bioavailability / Tmax / AUC(0-t) / Cmax: plasma, Cynomolgus monkey; for bioavailability: oral dose 2 mg/kg (CE-1: 1 mg/kg); for Tmax / AUC(0-t) / Cmax: single oral dose 2 mg/kg (CE-1: 1 mg/kg); for AUC(0-t): read-out: AUC0-24 (Arbitrary units); for Cmax: read-out: Cmax (Arbitrary unit)
Procedure: Examples 54 and 253 were tested along with comparative examples CE-1 and CE-2.
Compounds CE-2, Example 54 or Example 253 were combined with a mixture of 10% NMP (v:v) and 90% PEG300 (v:v), and the mixture was stirred until a homogeneous solution was obtained (1 mg/mL final concentration of test article).
Compound CE-1 was combined with a mixture of 15% 2-hydroxypropyl-o-cyclodextrin (w:v) and 85% Mili-Q water (v:v), and the mixture was stirred until a homogeneous solution was obtained (0.5 mg/mL final concentration of test article).
Young adult non-naive Cynomolgus monkeys with weight about 2.5-5 kg (n=1-3/test article/route) were fasted overnight and then dosed with either CE-1 (at 1 mg test article per kg animal weight), CE-2 (at 2 mg test article per kg animal weight), Example 54 (at 2 mg test article per kg animal weight), or Example 253 (at 2 mg test article per kg animal weight). Food was supplied approximately 4 hours post dose and animals were provided with free access to water all the time. Animals were restrained at designated time points for blood sampling. Approximately 500 μL of blood samples was taken via cephalic or saphenous vein into EDTA-K2 tubes. For oral administration (PO): blood samples were generally collected pre-dose, and at 15 min, 30 min, 1 hr, 2 hr, 4 hr, 8 hr, 12 hr, and 24 hr time points after dosing. Blood was maintained on wet ice, in chilled cryoracks, or at approximately 5° C. prior to centrifugation to obtain plasma. Centrifugation was conducted within 1 hour of collection. Plasma (approximately 200 μL) was placed into a micronic tubes containing 4 μL of formic acid (the final concentration of formic acid in plasma was approximately 2%) and samples were vortex mixed. Samples were maintained on dry ice prior to storage at approximately −70° C.
LC-MS/MS assays were utilized to quantify the concentration of the test articles in plasma as follows.
50 μL plasma sample was mixed with 350 μL of ACN combined with an internal standard. The mixture was then vortexed for about 1-5 min, and centrifuged at about 4,000-5,800 rpm for about […]. An aliquot of 1 μL supernatant was used for LC-MS/MS analysis.
MS conditions: A Sciex API 6500 equipped with electrospray ionization in the positive ion selected reaction monitoring mode was used for detection.
HPLC conditions • Mobile Phase A: H2O-0.1% Formic Acid • Mobile Phase B: ACN-0.1% Formic Acid
• Column: Phenomenex Kinetex XBC18 (2.1×50 mm, 2.6 μm) with a flow rate of 1.20 mL/min • Column temperature: 60° C. • Retention time: approximately between 0.85 to 1.05 • min
Pharmacokinetics parameters, including area under the curve (AUC0-24), maximum plasma concentration (Cmax), time to reach maximum plasma concentration (Tma), oral bioavailability (F %), etc., were calculated using Dotmatics software in non-compartmental model.

GLP-1R = biological target: T1, GLP-1R (Homo sapiens, UniProt P43220); test: GLP-1R activation cAMP assay (Assay 1 or Assay 2); assay type: cell-based; conditions: cAMP increase in CHO cells stably expressing GLP-1R; compounds run on one of the two cAMP assays
T1 construct: host or cells: CHO cells
Outline: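 CHO cells stably expressing human GLP-1R were incubated 1 h in HBSS/20 mM HEPES/0.1% BSA, then exposed to 10-point agonist dilutions for 30 min at 37 °C. cAMP increase was measured with an HTRF Gs dynamic kit; EC50 from sigmoidal fit of response versus log concentration.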

T1 sequence (P43220 24-463): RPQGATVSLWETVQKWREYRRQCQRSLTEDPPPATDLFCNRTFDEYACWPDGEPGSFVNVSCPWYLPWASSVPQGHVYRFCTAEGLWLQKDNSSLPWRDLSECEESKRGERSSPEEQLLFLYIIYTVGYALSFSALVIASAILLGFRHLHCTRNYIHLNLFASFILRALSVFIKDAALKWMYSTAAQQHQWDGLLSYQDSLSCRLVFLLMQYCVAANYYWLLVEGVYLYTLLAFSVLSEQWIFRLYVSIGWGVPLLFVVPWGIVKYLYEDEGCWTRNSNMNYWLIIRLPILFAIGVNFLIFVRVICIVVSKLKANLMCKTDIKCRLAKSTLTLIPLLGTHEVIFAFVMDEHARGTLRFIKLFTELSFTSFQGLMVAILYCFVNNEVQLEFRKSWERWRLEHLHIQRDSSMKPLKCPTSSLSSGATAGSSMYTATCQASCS

bioavailability [1] [%] | EC50 (GLP-1R) [nM] | other results | SMILES
27.4 ± 12.9 |  |  | N#Cc1ccc(COc2cccc(-c3cc(F)c(Cc4nc5ccc(C(=O)O)cc5n4C[C@@H]4CCO4)cc3F)n2)c(F)c1 [Compound CE-2]
2.5 ± 0.2 |  |  | N#Cc1ccc(COc2cccc(C3CCN(Cc4nc5ccc(C(=O)O)cc5n4C[C@@H]4CCO4)CC3)n2)c(F)c1 [Compound CE-1]
55.7 ± 20.6 |  | Tmax [1]: 5.3 ± 2.3 h; AUC(0-t) [1]: 6.39 ± 2.36 µM·h; Cmax [1]: 0.582 ± 0.296 µM | O=C(O)c1cc(F)c2nc(Cc3cc(F)c(-c4cccc(OCc5ncc(C(F)(F)F)s5)n4)cc3F)n(C[C@@H]3CCO3)c2c1 [Example 253, (S)-2-(2,5-difluoro-4-(6-((5-(trifluoromethyl)thiazol-2-yl)methoxy)pyridin-2-yl)benzyl)-4-fluoro-1-(oxetan-2-ylmethyl)-1H-benzo[d]imidazole-6-carboxylic acid]
 |  | plasma exposures after the 12 h period ([1]; single oral dose of 1 mg/kg, monkey, FIG. 1): below the detection limit | N#Cc1ccc(COc2cccc(C3CCN(Cc4nc5ccc(C(=O)O)cc5n4C[C@@H]4CCO4)CC3)n2)c(F)c1 [CE-1, (S)-2-((4-(6-((4-cyano-2-fluorobenzyl)oxy)pyridin-2-yl)piperidin-1-yl)methyl)-1-(oxetan-2-ylmethyl)-1H-benzo[d]imidazole-6-carboxylic acid, reference compound]
 | 0.23 |  | O=C(O)c1ccc2nc(Cc3cc(F)c(-c4cccc(OCc5nc6cccnc6s5)n4)cc3F)n(C[C@@H]3CCO3)c2c1 [Example 26, (S)-2-(2,5-difluoro-4-(6-(thiazolo[5,4-b]pyridin-2-ylmethoxy)pyridin-2-yl)benzyl)-1-(oxetan-2-ylmethyl)-1H-benzo[d]imidazole-6-carboxylic acid]
 | 6.52 |  | O=C(O)c1ccc2nc(Cc3cc(F)c(-c4cccc(OCc5nnc(C6CC6)o5)n4)cc3F)n(C[C@@H]3CCO3)c2c1 [Example 67, (S)-2-(4-(6-((5-cyclopropyl-1,3,4-oxadiazol-2-yl)methoxy)pyridin-2-yl)-2,5-difluorobenzyl)-1-(oxetan-2-ylmethyl)-1H-benzo[d]imidazole-6-carboxylic acid]
89 ± 33 | 0.09 | Tmax [1]: 4.7 ± 1.2 h; AUC(0-t) [1]: 14.2 ± 7.69 µM·h; Cmax [1]: 1.27 ± 0.628 µM | O=C(O)c1ccc2nc(Cc3cc(F)c(-c4cccc(OCc5ncc(C(F)(F)F)s5)n4)cc3F)n(C[C@@H]3CCO3)c2c1 [Example 54, (S)-2-(2,5-difluoro-4-(6-((5-(trifluoromethyl)thiazol-2-yl)methoxy)pyridin-2-yl)benzyl)-1-(oxetan-2-ylmethyl)-1H-benzo[d]imidazole-6-carboxylic acid]
 | 0.123 |  | O=C(O)c1cc(F)c2nc(Cc3cc(F)c(-c4cccc(OCc5ncc(C(F)F)s5)n4)cc3F)n(C[C@@H]3CCO3)c2c1 [Example 324, (S)-2-(4-(6-((5-(difluoromethyl)thiazol-2-yl)methoxy)pyridin-2-yl)-2,5-difluorobenzyl)-4-fluoro-1-(oxetan-2-ylmethyl)-1H-benzo[d]imidazole-6-carboxylic acid]
